The results in this text go back to US20150038430A1, “THERAPEUTIC PEPTIDOMIMETIC MACROCYCLES” (AILERON Therapeutics, Inc., priority 2008, published 2015).

One assay relates to NCI-H146. Description: MTT cell viability assay, NCI-H146. The assay is classed as cell-based, human. The settings on record: 20 μM, MTT 48 hrs, FIG. 1. The procedure:
(§1) Cell viability assays shown in FIGS. 1-32 were performed according to the following protocol. Tumor cell lines were grown in specific serum-supplemented media (growth media) as necessary. A day prior to the initiation of the study, cells were plated at optimal cell density (15,000 to 25,000 cells/well) in 200 μl growth media in microtiter plates. The next day, cells were washed twice in serum-free/phenol red-free RPMI complete media (assay buffer) and a final volume of 100 μl assay buffer was added to each well. Human peripheral blood lymphocytes (hPBLs) were isolated from Buffy coats (San Diego Blood Bank) using Ficoll-Paque gradient separation and plated on the day of the experiment at 25,000 cells/well.
(§2) Peptidomimetic macrocycles were diluted from 1 mM stocks (100% DMSO) in sterile water to prepare 400 μM working solutions. The peptidomimetic macrocycles and controls were then diluted 10 or […] or alternatively serially two-fold diluted in assay buffer in dosing plates to provide concentrations of either 40 and 20 μM or between 1.2 and 40 μM, respectively. […]
(§3) Towards the end of the 4 hour incubation time, 22 μl FBS was added to each well for a total concentration of 10% FBS. […] At the end of the incubation period, MTT assay was performed according to manufacturer's instructions (Sigma, catalog #M2128) and absorbance was measured at 560 nm using Dynex Opsys MR Plate reader. […]

For assay [1], the system named is leukemia/lymphoma human cell lines. Description: MTT cell viability assay, leukemia/lymphoma lines. The format is cell-based. The settings on record: 20 μM, MTT 48 hrs, FIG. 1. The method, then: as §1, §2, §3
On the technique in general: Tetrazolium assays rely on reduction of a dye to a coloured formazan, in cell work by metabolically active cells.

The target of a further assay is Bcl-xL (Homo sapiens, UniProt Q07817). Description: Kd, μM | Bcl-xL. The text has this:
(§4) Table printed on a drawing sheet, Figure 27
Head of the field: Kd, μM | Bcl-xL
Where the first naming reader finds the target: head: Kd, μM | Bcl-xL

Another assay concerns H-460. Description: MTT cell viability assay, H-460. The assay is classed as cell-based, human. Conditions: 20 μM, MTT 48 hrs, FIG. 1. The method, then: as §1, §2, §3
In a further assay the test system is MM1S. The assay is classed as cell-based, human. The settings on record: 24 h. An outline of the steps: (§5)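 EC50 values reflect 24 h exposure in Opti-MEM (serum-free, or 2% human serum) followed by CellTiter-Glo luminescence against DMSO-only controls.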
Another assay deals with A375. The assay is classed as cell-based, human. Conditions: 24 h. An outline of the steps: as §5
The next assay has as its target Bcl-2. Description: Kd, μM | Bcl-2.
Excerpt: as §4
Head of the field: Kd, μM | Bcl-2
First copying reader's note: The last row (ABT-737) is a small-molecule comparator; the three plots above the table are not copied.
Where the first naming reader finds the target: head: Kd, μM | Bcl-2

Each structure is given as a SMILES string. Numbered stars: 1 amine (or outer) side, 2 acyl side, 3 side chain; on linkers, the order of the positions; unused ones are H or OH. Bridge positions count the residues as written; N and C are the ends. Square brackets hold non-standard residues; d marks the D form. Peptide text beside a SMILES is read from it. ξ: configuration not given here. ξαMeNle(6-ylidene) = CC(CCCC=[*:3])(N[*:1])C(=O)[*:2]; Nle = CCCC[C@H](N)C(=O)O

Bcl-xL, sequence (Q07817 whole entry, looked up): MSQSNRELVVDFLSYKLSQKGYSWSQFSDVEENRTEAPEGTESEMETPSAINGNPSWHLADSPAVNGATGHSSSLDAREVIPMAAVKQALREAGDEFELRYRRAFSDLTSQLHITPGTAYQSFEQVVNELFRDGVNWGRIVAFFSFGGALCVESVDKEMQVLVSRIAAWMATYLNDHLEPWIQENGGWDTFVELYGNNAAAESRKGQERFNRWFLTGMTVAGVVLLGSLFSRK

The Kd is a measure of binding affinity in units of concentration. A lower Kd goes with higher affinity. A word on the EC50: it is the concentration at which the effect is half-maximal. Regarding `CCCC[C@H](NC(=O)C1(C)CCCC=CCCCC(C)(NC(=O)[C@H](C)NC(=O)[C@H](CC(C)C)NC(=O)[C@H](Cc2c[nH]cn2)NC(=O)[C@H](CCCNC(=N)N)NC(=O)[C@H](C)NC(=O)[C@@H](NC(=O)[C@H](CC(N)=O)NC(=O)[C@H](CCCNC(=N)N)NC(=O)[C@@H](NC(=O)[C@@H](NC(=O)[C@H](CC(=O)O)NC(C)=O)[C@@H](C)CC)[C@@H](C)CC)[C@@H](C)CC)C(=O)N[C@@H](C(C)C)C(=O)NCC(=O)N[C@@H](CC(=O)O)C(=O)N1)C(=O)N[C@@H](CC(=O)O)C(=O)N[C@@H](CCCNC(=N)N)C(=O)N[C@@H](CO)C(=O)N[C@H](C(N)=O)[C@@H](C)CC` (stereo partly shown) [SP-1] (Ac-DIIRNIARHLA[ξαMeNle(6-ylidene)]VGD[ξαMeNle(6-ylidene)][Nle]DRSI-NH2; staple 12-16), the “apoptosis of NCI-H146 (SCLC)” value in the assay on NCI-H146 is “induced apoptosis”. The “sensitivity of all leukemia/lymphoma lines tested” value in assay [1] is reported as “sensitive”. Besides, the results for the Kd at Bcl-xL and at Bcl-2 were below 0.1 µM and 1 µM, respectively. Further, in the assay on H-460, the “sensitivity of H-460 (NSCLC)” value is given as “resistant”. Besides, the values for the half-maximal effective concentration (EC50) in the assay with MM1S and in the assay on A375 were 3.5 µM and 11 µM, respectively.
